≈ marks a conversion by molar mass, not a printed value. A value given as a limit tells only on which side of the number the result lay.

The conditions of this series: buffer; pH 7.4; 200.0 µM.
A word on the solubility (kinetic): it is the concentration staying in solution when a stock, usually in DMSO, is diluted into the medium. Regarding `COc1cc(NC(C)=O)ccc1NC(=O)c1cc2ccccc2o1`, the kinetic solubility is under 0.3 µg/mL.
For `CN1C(=O)C(CCC(N)=O)NC1=S` (stereo not given) the value was 29.1 µg/mL (≈ 145 µM); for `CC1(C)CC(=O)N(c2cccc(C(F)(F)F)c2)C(=O)C1`, 8.1 µg/mL (≈ 28.4 µM); for `O=c1c2ccccc2ncn1-c1ccc(Cl)cc1Cl`, 33.8 µg/mL (≈ 116 µM).
For `CC(CC(=O)Nc1nccs1)c1ccccc1` (stereo not given), the kinetic solubility was found to be 32.5 µg/mL (≈ 132 µM).
Regarding `Cn1cnc(S(=O)(=O)Nc2ccccc2C(=O)NCC2CC2)c1`, the kinetic solubility was over 50.2 µg/mL.
`O=C(CSc1nc2ccccc2c(=O)n1CCCN1CCOCC1)Nc1ccccc1OC(F)F` gave a kinetic solubility of over 75.7 µg/mL.
With `CN1CCN(C(=O)c2ccc(F)c(F)c2)CC1`, the kinetic solubility is over 36 µg/mL.
For `Cc1[nH]c2ccccc2c1C(=O)COC(=O)c1ccc[n+]([O-])c1` the value was 39.7 µg/mL (≈ 128 µM); for `CC(=O)c1ccc(N(CC(=O)NC2CCS(=O)(=O)C2)S(=O)(=O)c2ccc(C)cc2)cc1` (stereo not given), 10.4 µg/mL (≈ 22.4 µM); for `COc1ccc(OC)c(CN2CCCCCC2)c1.O=C(O)C(=O)O`, 48.2 µg/mL.
Under `COc1ccc(S(=O)(=O)Nc2cccnc2)c(C)c1C` stands 19.8 µg/mL (≈ 67.7 µM); under `COc1ccc(O)c(/C=C(\C#N)C(=O)Nc2ccccn2)c1`, 22.8 µg/mL (≈ 77.2 µM).
For `C=CCNC(=O)/C(=C/c1cccc([N+](=O)[O-])c1)NC(=O)c1ccco1` the value was 43.3 µg/mL (≈ 127 µM); for `O=C(NC1CCCCC1)C(=S)NCc1ccccc1`, 1.4 µg/mL (≈ 5.07 µM).
The compound `Cc1[nH]c2ccccc2c1C(=O)CSC(=S)N1CCOCC1` registered a kinetic solubility of 2.4 µg/mL (≈ 7.18 µM). This solubility kinetic is about 1.7-fold higher than that of the compound before.
The compound `Cc1ccc2c(=O)cc(C(=O)NC3CCS(=O)(=O)C3)oc2c1` (stereo not given) returned a kinetic solubility of over 48.2 µg/mL.
Under `CC(C)Oc1ccc(C(CC(=O)N2CCOCC2)C(C)C)cc1` (stereo not given) stands over 47.9 µg/mL; under `COc1cccc(OC)c1C(=O)Nc1sc2c(c1C#N)CCC2`, 0.7 µg/mL (≈ 2.13 µM).
The compound `Cn1ccnc1C(OC(=O)c1ccc(Cl)cc1)C(F)(F)F` (stereo not given) had a solubility (kinetic) of over 47.8 µg/mL.
Under `COc1ccc(C(C)=O)cc1COc1ccccc1[N+](=O)[O-]` stands under 0.6 µg/mL.
Under `CN(CC(=O)NC1CCCCCC1)S(=O)(=O)c1cnc[nH]1` stands over 47.2 µg/mL; under `c1ccc(P(c2ccccn2)c2ccccn2)cc1`, over 39.6 µg/mL; under `Cc1cc(NC(=O)CC(C)C)c(=O)n(Cc2ccccc2F)c1`, 37.3 µg/mL (≈ 118 µM).
In the case of `O=C(COc1ccc(Cl)cc1)NCCc1ccccn1`, the solubility (kinetic) is 37.2 µg/mL (≈ 128 µM).
Under `CCOc1ccccc1NS(=O)(=O)c1cn(C)c(=O)n(C)c1=O` stands 34.4 µg/mL (≈ 101 µM); under `Cc1noc2ncnc(Oc3cc(Cl)ccc3Cl)c12`, under 0.2 µg/mL; under `C=CCn1c(NCc2ccc(OC)cc2O)nc2ccccc21`, 37.9 µg/mL (≈ 123 µM).
Under `O=S(=O)(Nc1ccc(F)cc1)c1ccc(S(=O)(=O)N2CCOCC2)cc1` stands 12.6 µg/mL (≈ 31.5 µM).
In turn, `CCOC(=O)c1ccc(S(=O)(=O)N2CCN(C/C=C/c3ccccc3)CC2)cc1` had a solubility (kinetic) of 2.8 µg/mL (≈ 6.75 µM).
Under `Nc1nc(Nc2ccccc2)nc(NCCO)c1[N+](=O)[O-]` stands 38 µg/mL (≈ 131 µM).
For `Nc1nc(NCCO)nc(N2CCCCCC2)c1[N+](=O)[O-]` the value was over 44.4 µg/mL; for `CC1CCN(CC(O)Cn2c3ccccc3c3ccccc32)CC1` (stereo not given), 38.7 µg/mL (≈ 120 µM).
`CN(Cc1ccccc1)c1cc(Cl)nc(N)n1`: the solubility (kinetic) came out at 21.5 µg/mL (≈ 86.4 µM).
Under `O=C(Cc1ccc(S(=O)(=O)N2CCCC2)s1)Nc1cccc([N+](=O)[O-])c1` stands 20.7 µg/mL (≈ 52.3 µM); under `Cc1ccc2nc3c(cc(C#N)c(=N)n3Cc3cccnc3)c(=O)n2c1`, 2.1 µg/mL (≈ 6.13 µM).
Under `O=C(NC1CC2CCCC(C1)N2C(=O)Nc1ccccc1Cl)C1CC1` (stereo not given) stands over 54.3 µg/mL.
For `O=C(c1ccc(F)cc1)C1CCN(C(=O)c2ccccc2)CC1` the value was over 46.7 µg/mL; for `CCN(CC)CCNS(=O)(=O)c1ccc2c3c(cccc13)C(=O)N2`, over 52.1 µg/mL.
Take `CC(=O)c1cccc(Nc2cc(C)nc3ccccc23)c1.Cl`: the solubility (kinetic) came out at 27.8 µg/mL.

These data come from PubChem BioAssay AID1996.
